The values below come from patent publication US11613546B2, “Substituted pyridotriazine compounds and uses thereof” (Gilead Sciences, Inc., priority 2021, dated 2023).

Holding throughout (assay type): cell-based
The subject of one data set is MT-4 cells. Kind of data set: Cytotoxicity assay in MT-4 cells. In a few lines:
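Uninfected MT-4 cells were incubated with 1:3 serially diluted compound in RPMI/10% FBS for 5 days at 37° C. Viability was read by CellTiter-Glo luminescence, with 10 μM puromycin as the baseline cytotoxicity control. Values are the concentration giving a 50% decrease in luminescence, from sigmoidal dose-response fits.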

Another data set relates to HIV-1 (IIIB). As to the kind of experiment: Antiviral assay in MT-4 cells. Conditions: HIV-1 IIIB infected MT-4 cells, 5 days, Cell Titer Glo, read-out: MT4 EC50. In a few lines: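 MT-4 cells infected with a 1:250 dilution of HIV-1 IIIB stock were incubated with serially diluted (1:3) compound for 5 days at 37 °C. Viability read by Cell Titer Glo luminescence; EC50 is the concentration giving 50% decrease in signal, from sigmoidal dose-response fits.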

The next data set has as its system pLai RLuc reporter virus. Kind of data set: HIV MT-4 serum shift antiviral reporter assay. In a few lines:
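MT-4 cells pre-infected with pLai RLuc virus for 2 h at 37 °C, then incubated 72 h at 37 °C with compound in medium (RPMI, 10% FBS) with or without 50% human serum; Renilla luminescence read. EC50 from sigmoidal fit; serum shift = EC50(HS/CCM)/EC50(CCM).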
In general terms: A reporter such as luciferase makes a cellular process visible.

Where [1] appears, read: uninfected MT-4 cells, 5 days, Cell Titer Glo, read-out: CC50.
Setting [2] is: read-out: RLUC 50% HS, HS/CCM: 50% human serum, 72 h, Renilla Glo.
The mark [3] stands for this setting: read-out: RLUC CCM, cell culture media (RPMI, 10% FBS), 72 h, Renilla Glo.
Setting [4] is: HS/CCM: 50% human serum, 72 h, Renilla Glo, read-out: RLUC 50% HS.
Setting [5] is: cell culture media (RPMI, 10% FBS), 72 h, Renilla Glo, read-out: RLUC CCM.
The mark [6] stands for this setting: Human immunodeficiency virus 1, IIIB, MT4, 120 h.
The mark [7] stands for this setting: Human immunodeficiency virus 1, 72 h, read-out: RLUC 50% HS (nM), HS/CCM: 50% human serum, 72 h, Renilla Glo.
The mark [8] stands for this setting: Human immunodeficiency virus 1, 72 h, read-out: RLUC CCM (nM), cell culture media (RPMI, 10% FBS), 72 h, Renilla Glo.

Each structure is given as a SMILES string. Like-named read-outs stand apart in the source and are kept apart here.

One may read the CC50 as the concentration that lowers cell viability or growth by half.

For `C[C@H]1C/C=C\CN2CN1n1cc(C(=O)NCc3ccc(F)cc3F)c(=O)c(O)c1C2=O` [Example C43, (1R,2S,Z)—N-(2,4-difluorobenzyl)-9-hydroxy-2-methyl-8,10-dioxo-3,6,8,10-tetrahydro-2H-1,7-methanopyrido[1,2-b][1,2,5]triazecine-11-carboxamide], the CC50 in the data set on MT-4 cells (setting [1]) was found to be 6.11 µM. For the same compound, the EC50 stood at 5.3 nM in the data set on HIV-1 (IIIB), 544 nM in the data set with pLai RLuc reporter virus (setting [2]) and 1.68 nM in the data set with pLai RLuc reporter virus (setting [3]).
For the compound `CO[C@@H]1C=C[C@H](C)N2CN1n1cc(C(=O)NCc3c(F)cc(F)cc3F)c(=O)c(O)c1C2=O` [Example C46, (1R,2R,5S)-8-hydroxy-2-methoxy-5-methyl-7,9-dioxo-N-(2,4,6-trifluorobenzyl)-2,5,7,9-tetrahydro-1,6-methanopyrido[1,2-b][1,2,5]triazonine-10-carboxamide], the CC50 in the data set with MT-4 cells (setting [1]) is 27 µM. The figures for the EC50 with HIV-1 (IIIB), in the data set on pLai RLuc reporter virus (setting [4]) and in the data set on pLai RLuc reporter virus (setting [5]) were 1.6 nM, 468 nM and 0.44 nM, respectively.
With `C[C@@H]1C=C[C@H](CF)N2CN1n1cc(C(=O)NCc3ccc(F)cc3F)c(=O)c(O)c1C2=O` [Example C49a, (1S,10R,13R)—N-[(2,4-difluorophenyl)methyl]-10-(fluoromethyl)-6-hydroxy-13-methyl-5,8-dioxo-1,2,9-triazatricyclo[7.4.1.02,7]tetradeca-3,6,11-triene-4-carboxamide], the CC50 with MT-4 cells (setting [1]) stood at 11.3 µM. The results for the EC50 in the data set on HIV-1 (IIIB), with pLai RLuc reporter virus (setting [4]) and in the data set with pLai RLuc reporter virus (setting [5]) were 1.2 nM, 140 nM and 0.64 nM, respectively.
The matching figures for `C[C@@H]1CC[C@H](CF)N2CN1n1cc(C(=O)NCc3ccc(F)cc3F)c(=O)c(O)c1C2=O` [Example C49b, (1S,10R,13R)—N-[(2,4-difluorophenyl)methyl]-10-(fluoromethyl)-6-hydroxy-13-methyl-5,8-dioxo-1,2,9-triazatricyclo[7.4.1.02,7]tetradeca-3,6-diene-4-carboxamide]: 8.93 µM, 1.9 nM, 462 nM and 1 nM.
Turning to `C[C@@H]1CC[C@H](CF)N2CN1n1cc(C(=O)NCc3c(F)cc(F)cc3F)c(=O)c(O)c1C2=O` [Example C51, (1S,2R,5R)-5-(fluoromethyl)-8-hydroxy-2-methyl-7,9-dioxo-N-(2,4,6-trifluorobenzyl)-2,3,4,5,7,9-hexahydro-1,6-methanopyrido[1,2-b][1,2,5]triazonine-10-carboxamide], the 50% cytotoxic concentration (CC50) in the data set on MT-4 cells was 9.81 µM. Also, the figures for the EC50 in the data set with HIV-1 (IIIB), in the data set on pLai RLuc reporter virus (setting [4]) and in the data set with pLai RLuc reporter virus (setting [5]) were 1.3 nM, 408 nM and 2.3 nM, respectively.
In the case of `C[C@@H]1c2nc[nH]c2[C@H](C)N2CN1n1cc(C(=O)NCc3ccc(F)cc3F)c(=O)c(O)c1C2=O` [Example C60, (4R,5S,13S)—N-(2,4-difluorobenzyl)-10-hydroxy-4,13-dimethyl-9,11-dioxo-4,9,11,13-tetrahydro-1H-5,12-methanoimidazo[4,5-g]pyrido[1,2-b][1,2,5]triazonine-8-carboxamide], the CC50 with MT-4 cells (setting [1]) is 50 µM. In addition, the EC50 came out at 95.7 nM in the data set on HIV-1 (IIIB) (setting [6]), 104 nM in the data set with pLai RLuc reporter virus (setting [7]) and 42.6 nM in the data set with pLai RLuc reporter virus (setting [8]).
Regarding `CO[C@@H]1[C@H](OC)[C@H](C)N2CN([C@@H]1C)n1cc(C(=O)NCc3c(F)cc(F)cc3F)c(=O)c(O)c1C2=O` [Example C61, (1S,2R,3S,4R,5S)-8-hydroxy-3,4-dimethoxy-2,5-dimethyl-7,9-dioxo-N-(2,4,6-trifluorobenzyl)-2,3,4,5,7,9-hexahydro-1,6-methanopyrido[1,2-b][1,2,5]triazonine-10-carboxamide], in the data set with MT-4 cells (setting [1]), the CC50 was 50 µM. Besides, the EC50 with HIV-1 (IIIB) (setting [6]) turned out to be 2.8 nM; in the data set with pLai RLuc reporter virus (setting [7]) it was 1.6 nM; in the data set on pLai RLuc reporter virus (setting [8]), 0.76 nM.
On to `C[C@H]1CC[C@H](C)N2CN1C(=O)c1c(O)c(=O)c(C(=O)NCc3c(F)cc(F)cc3F)cn12` [Example C66, (1R,2S,5S)-8-hydroxy-2,5-dimethyl-7,9-dioxo-N-(2,4,6-trifluorobenzyl)-2,3,4,5,7,9-hexahydro-1,6-methanopyrido[1,2-b][1,2,5]triazonine-10-carboxamide], for which, in the data set on MT-4 cells (setting [1]), the CC50 worked out at 10.4 µM. The EC50 with HIV-1 (IIIB) turned out to be 1.4 nM; in the data set with pLai RLuc reporter virus (setting [2]), 179 nM; with pLai RLuc reporter virus (setting [3]) it was 0.5 nM.
Turning to `C[C@@H]1C=C[C@@H](C)N2CN1C(=O)c1c(O)c(=O)c(C(=O)NCc3ccc(F)cc3F)cn12` [Example C68, (1R,2R,5R)—N-(2,4-difluorobenzyl)-8-hydroxy-2,5-dimethyl-7,9-dioxo-2,5,7,9-tetrahydro-1,6-methanopyrido[1,2-b][1,2,5]triazonine-10-carboxamide], the CC50 in the data set with MT-4 cells (setting [1]) amounted to 17.3 µM. Further, the EC50 in the data set with HIV-1 (IIIB) (setting [6]) was 1.6 nM; in the data set with pLai RLuc reporter virus (setting [8]) it was 0.82 nM; in the data set with pLai RLuc reporter virus (setting [2]) it was 291 nM.
Regarding `C[C@@H]1C=C[C@@H](C)N2CN1C(=O)c1c(O)c(=O)c(C(=O)NCc3ccc(F)cc3F)cn12` [Example C69, (1S,2R,5R)—N-(2,4-difluorobenzyl)-8-hydroxy-2,5-dimethyl-7,9-dioxo-2,5,7,9-tetrahydro-1,6-methanopyrido[1,2-b][1,2,5]triazonine-10-carboxamide], in the data set on MT-4 cells (setting [1]), the CC50 was 38.9 µM. The figures for the EC50 in the data set on HIV-1 (IIIB), in the data set on pLai RLuc reporter virus (setting [2]) and in the data set with pLai RLuc reporter virus (setting [3]) were 1.5 nM, 146 nM and 0.55 nM, respectively.
In the case of `C[C@H]1CC[C@@H](C(F)F)N2CN1C(=O)c1c(O)c(=O)c(C(=O)NCc3c(F)cc(F)cc3F)cn12` [Example C78, (1S,2S,5S)-2-(difluoromethyl)-8-hydroxy-5-methyl-7,9-dioxo-N-(2,4,6-trifluorobenzyl)-2,3,4,5,7,9-hexahydro-1,6-methanopyrido[1,2-b][1,2,5]triazonine-10-carboxamide], in the data set with MT-4 cells (setting [1]), the CC50 came out at 13.7 µM. For the same compound, the results for the EC50 with HIV-1 (IIIB), in the data set on pLai RLuc reporter virus (setting [4]) and with pLai RLuc reporter virus (setting [5]) were 1.6 nM, 1040 nM and 0.42 nM, respectively.
`COC[C@@H]1C=C[C@H](C)N2CN1n1cc(C(=O)NCc3c(F)cc(F)cc3F)c(=O)c(O)c1C2=O` [Example C79, (1S,2S,5S)-8-hydroxy-2-(methoxymethyl)-5-methyl-7,9-dioxo-N-(2,4,6-trifluorobenzyl)-2,5,7,9-tetrahydro-1,6-methanopyrido[1,2-b][1,2,5]triazonine-10-carboxamide]: in the data set on MT-4 cells (setting [1]), the CC50 came out at 50 µM. Further, the EC50 in the data set on HIV-1 (IIIB) (setting [6]) came out at 4.6 nM; in the data set with pLai RLuc reporter virus (setting [7]), 638 nM; in the data set on pLai RLuc reporter virus (setting [8]) it was 1.81 nM.
`C[C@H]1C=C[C@H](CF)N2CN1C(=O)c1c(O)c(=O)c(C(=O)NCc3c(F)cc(F)cc3F)cn12` [Example C80, (1R,2R,5S)-2-(fluoromethyl)-8-hydroxy-5-methyl-7,9-dioxo-N-(2,4,6-trifluorobenzyl)-2,5,7,9-tetrahydro-1,6-methanopyrido[1,2-b][1,2,5]triazonine-10-carboxamide]: it took 25.4 µM to reach half-maximal cytotoxicity with MT-4 cells (CC50). Further, the EC50 is 8.1 nM with HIV-1 (IIIB), 810 nM in the data set with pLai RLuc reporter virus (setting [4]) and 1.24 nM in the data set with pLai RLuc reporter virus (setting [5]).
Take `C[C@H]1C=C[C@]2(CCOC2)N2CN1C(=O)c1c(O)c(=O)c(C(=O)NCc3c(F)cc(F)cc3F)cn12` [Example C84, (1′S,3S,5′S)-8′-hydroxy-5′-methyl-7′,9′-dioxo-N-(2,4,6-trifluorobenzyl)-4,5,7′,9′-tetrahydro-2H,5′H-spiro[furan-3,2′-[1,6]methanopyrido[1,2-b][1,2,5]triazonine]-10′-carboxamide]: the CC50 with MT-4 cells (setting [1]) worked out at 20.5 µM. In addition, the EC50 came to 0.6 nM in the data set on HIV-1 (IIIB), 24.9 nM with pLai RLuc reporter virus (setting [4]) and 0.26 nM in the data set on pLai RLuc reporter virus (setting [5]).
For the compound `C[C@@H]1[C@H]2C[C@H]2[C@H](C)N2CN1n1cc(C(=O)NCc3c(F)cc(F)cc3F)c(=O)c(O)c1C2=O` [Example C89, (1aS,2R,3R,11S,11aR)-8-hydroxy-2,11-dimethyl-7,9-dioxo-N-(2,4,6-trifluorobenzyl)-1a,2,7,9,11,11a-hexahydro-1H-3,10-methanocyclopropa[g]pyrido[1,2-b][1,2,5]triazonine-6-carboxamide], the CC50 in the data set with MT-4 cells (setting [1]) was 37.2 µM. In addition, the EC50 in the data set on HIV-1 (IIIB) is 1.1 nM; with pLai RLuc reporter virus (setting [4]), 36.5 nM; in the data set with pLai RLuc reporter virus (setting [5]) it was 1.09 nM.
The matching figures for `C[C@H]1C=CC(C)(C)N2CN1n1cc(C(=O)NCc3ccc(F)cc3F)c(=O)c(O)c1C2=O` [Example C91, (1R,2S)—N-(2,4-difluorobenzyl)-8-hydroxy-2,5,5-trimethyl-7,9-dioxo-2,5,7,9-tetrahydro-1,6-methanopyrido[1,2-b][1,2,5]triazonine-10-carboxamide]: 31 µM, 1.9 nM, 195 nM and 0.67 nM.
As to `C[C@H]1C=CC(C)(C)N2CN1n1cc(C(=O)NCc3ccc(F)cc3F)c(=O)c(O)c1C2=O` [Example C92, (1S,2S)—N-(2,4-difluorobenzyl)-8-hydroxy-2,5,5-trimethyl-7,9-dioxo-2,5,7,9-tetrahydro-1,6-methanopyrido[1,2-b][1,2,5]triazonine-10-carboxamide], in the data set with MT-4 cells (setting [1]), the CC50 is 17.5 µM. In addition, the EC50 in the data set with HIV-1 (IIIB) worked out at 1.5 nM; in the data set on pLai RLuc reporter virus (setting [4]) it was 246 nM; in the data set with pLai RLuc reporter virus (setting [5]) it was 0.67 nM.
